In the supplement of paper PMC10307832:

Columns and labels:
Test in all cases: relative viability (nuclei count vs DMSO), 5 days (fraction); higher = more cells survive
[1] = compound: C1CC2=C(C1)C=C(C=C2)OC3=NC(=C4C(=N3)N(C=N4)CC5=CC=C(C=C5)C6=CC=CC=C6)N[C@@H](CC7=CC=CC=C7)CO [QS11]
In short: (§1)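 A plate was accepted only when its control CV was below 25% and the cells had doubled at least once. Viability is defined from nuclear counts as treated wells divided by vehicle wells, with the median taken across plates. That median covers lung cancer cell lines grown in 1536-well plates, dosed by pinning at five √10-spaced library-drug concentrations, and counted in MetaXpress from 4× Hoechst images after 5 days.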

[2] = compound: C[As](C)SC[C@H](NC(=O)CC[C@H](N)C(=O)O)C(=O)NCC(=O)O [Darinaparsin]
In short: as §1

[3] = compound: CC1=C(C=C(C=C1)NC(=O)C2=CC(=CC=C2)C(C)(C)C#N)NC3=CC4=C(C=C3)N=CN(C4=O)C [AZ628]
In short: as §1

[4] = compound: CC1=C(C=C(C=C1)NC(=O)C2=CC(=CC=C2)C(C)(C)C#N)NC3=CC4=C(C=C3)N=CN(C4=O)C [AZ628] + Cc1nc(Nc2ncc(C(=O)Nc3c(C)cccc3Cl)s2)cc(N2CCN(CCO)CC2)n1 [Dasatinib] (partner 0.075 µM)
In short: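 Relative viability was taken as the ratio of nuclei in treated wells to nuclei in vehicle wells. Lung cancer cell lines in 1536-well plates received compounds by pin tool one day after seeding, either one drug alone or a fixed anchor-drug dose plus five library-drug doses (not always all listed) in √10 steps. Nuclei were counted on 4× images after 5 days of treatment, and values are medians of duplicate plates.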

| Cell Line | relative viability ([1]; 0.08 µM) | relative viability ([1]; 0.253 µM) | relative viability ([1]; 2.53 µM) | relative viability ([1]; 8 µM) | relative viability ([2]; 0.08 µM) | relative viability ([2]; 0.8 µM) | relative viability ([2]; 2.53 µM) | relative viability ([2]; 8 µM) | relative viability ([3]; 0.08 µM) | relative viability ([3]; 0.253 µM) | relative viability ([3]; 0.8 µM) | relative viability ([3]; 2.53 µM) | relative viability ([3]; 8 µM) | relative viability ([4]; first compound 0.08 µM) | relative viability ([4]; first compound 0.253 µM) | relative viability ([4]; first compound 0.8 µM) | relative viability ([4]; first compound 2.53 µM) | relative viability ([4]; first compound 8 µM) | relative viability ([1]; 0.8 µM) |
| --- | --- | --- | --- | --- | --- | --- | --- | --- | --- | --- | --- | --- | --- | --- | --- | --- | --- | --- | --- |
| H3255 | 0.947 | 1.01 | 1.01 | 1.08 | 1.02 | 1.01 | 0.896 | 1.01 | 0.996 | 0.908 | 0.975 | 1.02 | 0.693 | 0.311 | 0.362 | 0.319 | 0.351 | 0.252 |  |
| LOU-NH91 | 0.979 | 0.93 | 0.98 | 0.966 | 1.03 | 0.921 | 0.954 | 1.02 | 0.971 | 0.926 | 0.958 | 0.963 | 0.797 | 0.553 | 0.484 | 0.541 | 0.497 | 0.471 | 0.78 |
| NCI-H2126 | 0.994 | 0.944 | 0.965 | 0.799 | 1.1 | 1.03 | 0.956 | 1.12 | 1.04 | 1 | 0.888 | 1.02 | 0.985 | 0.584 | 0.565 | 0.492 | 0.491 | 0.415 | 0.905 |
| PC-14 | 0.821 | 1.06 | 1.04 | 0.895 | 1.05 | 0.97 | 1.02 | 1.22 | 1.07 | 0.938 | 0.907 | 0.959 | 0.674 | 0.274 | 0.289 | 0.315 | 0.262 | 0.146 | 0.888 |
| EMC-BAC-2 | 1.02 | 0.964 | 0.986 | 0.79 | 1.18 | 0.942 | 1.04 | 1.01 | 1.05 | 1 | 1.04 | 1.07 | 1.09 | 0.303 | 0.321 | 0.383 | 0.373 | 0.412 | 0.86 |
| HCC-78 | 0.958 | 0.955 | 1.03 | 1.05 | 1 | 0.918 | 0.936 | 1.09 | 1.09 | 0.911 | 1.08 | 1.05 | 0.932 | 0.514 | 0.338 | 0.417 | 0.394 | 0.367 | 0.94 |
| SK-LU-1 | 0.968 | 1.07 | 0.993 | 0.97 | 1.27 | 0.876 | 0.821 | 1.22 | 0.653 | 0.901 | 0.931 | 0.892 | 0.769 |  | 0.179 | 0.231 | 0.208 | 0.22 | 0.984 |
| ABC-1 | 1 | 0.957 | 1.17 | 1.15 | 0.952 | 0.956 | 0.928 | 0.968 | 1.12 | 0.727 | 0.873 | 0.793 | 0.767 | 0.592 | 0.412 | 0.583 | 0.516 | 0.52 | 0.895 |
| LK-2 | 0.99 | 1.21 | 0.956 | 1.3 | 1.16 | 0.83 | 0.982 | 1.26 | 1.29 | 0.983 | 0.977 | 0.857 | 0.467 | 0.311 | 0.288 | 0.204 | 0.23 | 0.212 | 1.09 |
| NCI-H23 | 0.995 | 0.85 | 0.832 | 0.831 | 1.06 | 0.843 | 1.11 | 1.14 | 1.01 | 0.838 | 0.721 | 0.799 | 0.543 | 0.708 | 0.75 | 0.44 | 0.509 | 0.302 | 0.832 |
| NCI-H2228 | 0.902 | 1.01 | 1.09 | 1.32 | 1.39 | 1.18 | 0.915 | 1.35 | 0.994 | 1.16 | 0.968 | 1.02 | 0.84 | 0.479 | 0.531 | 0.47 | 0.432 | 0.396 | 0.97 |
| NCI-H441 | 0.978 | 1.04 | 0.985 | 0.855 | 1.49 | 1.14 | 0.991 | 1.26 | 0.932 | 1.02 | 0.988 | 1.06 | 0.787 | 0.643 | 0.577 | 0.598 | 0.567 | 0.277 | 0.92 |
| NCI-H460 | 1.05 | 1.02 | 0.96 | 0.796 | 1.1 | 1 | 0.997 | 1.35 | 0.977 | 0.996 | 0.908 | 1.04 | 0.673 | 0.569 | 0.428 | 0.362 | 0.407 | 0.132 | 0.777 |
| LU99A | 0.868 | 0.99 | 1.02 | 0.834 | 0.929 | 1.05 | 0.991 | 1.09 | 0.883 | 0.807 | 0.875 | 1.03 | 0.65 | 0.527 | 0.625 | 0.52 | 0.492 | 0.242 | 1.02 |
| NCI-H358 | 0.92 | 0.99 | 1.37 | 1.01 | 1.07 | 0.872 | 0.832 | 0.984 | 0.846 | 0.654 | 0.598 | 0.583 | 0.435 | 0.184 | 0.124 | 0.136 | 0.161 | 0.1 | 1.11 |
| IA-LM | 1 | 1.1 | 0.902 | 0.996 | 1.16 | 1.05 | 1.16 | 1.12 | 1.15 | 0.871 | 0.589 | 0.607 | 0.266 |  |  |  |  |  | 0.576 |
| UMC-11 | 0.952 | 0.979 | 1.17 | 1.22 | 0.997 | 0.949 | 0.926 | 1.03 | 1.07 | 0.974 | 0.992 | 0.943 | 1.08 | 0.659 | 0.448 | 0.474 | 0.5 | 0.47 | 0.992 |
